Source: patent publication US20250250251A1, “PIPERIDINYLPYRIDINYLCARBONITRILE DERIVATIVES AS INHIBITORS OF GLUTAMINYL-PEPTIDE CYCLOTRANSFERASE AND GLUTAMINYL-PEPTIDE CYCLOTRANSFERASE LIKE PROTEIN” (Boehringer Ingelheim International GmbH, priority 2024, published 2025)

molecular target: T1, QPCTL (Homo sapiens, UniProt Q9NXS2); test: Assay A: biochemical QPCTL activity assay (MALDI-TOF MS, CD47 peptide substrate); conditions: Table 2, compounds of the invention, read-out: Inhibition of QPCTL: IC50
T1 construct: made in house
T1 sequence (Q9NXS2 whole entry, species assumed): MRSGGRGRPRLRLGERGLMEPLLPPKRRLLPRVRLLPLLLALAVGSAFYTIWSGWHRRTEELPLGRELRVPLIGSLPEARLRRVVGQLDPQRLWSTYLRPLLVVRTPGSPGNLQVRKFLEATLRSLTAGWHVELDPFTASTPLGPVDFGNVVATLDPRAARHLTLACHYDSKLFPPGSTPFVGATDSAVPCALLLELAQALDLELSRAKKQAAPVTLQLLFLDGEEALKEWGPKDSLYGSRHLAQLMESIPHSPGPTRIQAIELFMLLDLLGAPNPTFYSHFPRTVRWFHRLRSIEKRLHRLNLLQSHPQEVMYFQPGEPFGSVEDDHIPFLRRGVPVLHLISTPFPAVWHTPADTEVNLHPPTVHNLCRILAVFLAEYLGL
Procedure: (§1) QPCT or QPCTL dependent conversion of N-terminal glutamine to pyroglutamate of CD47 was monitored via MALDI-TOF MS. Test compounds were dissolved in 100% DMSO and serially diluted into clear 1,536-well microtiter plates. Enzymatic reactions were set up in assay buffer containing 20 mM Tris pH 7.5, 0.1 mM TCEP, 0.01% BSA, and 0.001% Tween20. […] The plates were incubated for 10 min in a humidified incubator at 24° C. Subsequently, 2.5 μL of CD47 peptide substrate surrogate (^19[…]^33) was added to each well (final concentration: 10 μM for QPCTL/20 μM for QPCT). The plates were mixed for 30 sec at 1,000 rpm and subsequently incubated for 40 min in a humidified incubator at 24° C. […] The plates were sealed with an adhesive foil, mixed for 30 s at 1,000 rpm and stored at room temperature until preparation of the MALDI target plates. MALDI target plates were prepared as described previously. […] QPCT or QPCTL activity was monitored by calculating the ratio between product and internal standard signals followed by normalization to high (100% activity) and low (0% activity) controls. Determination of compound potencies was obtained by fitting the dose-response data to a four-parameter logistical equation.

| Compound | IC50 [nM] |
| --- | --- |
| Cn1cnnc1C1(F)CCN(c2c(C#N)cc(C(F)(F)F)nc2-c2cnc3nn(C)c(C(F)(F)F)c3c2)CC1 [Example 10] | 8 |

same assay, conditions: Table 3, prior art compounds, read-out: Inhibition of QPCTL: IC50

| Compound | IC50 [nM] |
| --- | --- |
| Cn1cnnc1C1CCN(c2c(C#N)cccc2-c2cnc3cn[nH]c3c2)CC1 [Compound 125, reference compound] | 159 |
| Cn1cnnc1C1CCN(c2c(C#N)cccc2-c2cncc3c2cnn3C)CC1 [Compound 4, reference compound] | 97 |

tested on: CYP3A4 mRNA; test: Assay D: CYP induction screening assay in primary human hepatocytes; type: in vitro ADME; conditions: Table 9, compounds of the invention, 48 h
Procedure: Cryopreserved plateable human hepatocytes (single donor. BioIVT) were thawed and plated in Collagen-I coated 96-well-plates at a cell density of 0.07 million cells per well.
After a 6 h attachment period, the seeding medium was replaced by serum-free William's medium E supplemented with Matrigel (0.25 mg/ml) and allowed to recover overnight. 24 h post-seeding, serum-free Williams E medium containing the test compound at a final concentration of […] and a final DMSO content of 0.1% and 0.1% DMSO (solvent-treated control), respectively, was added to predefined wells. Exposure solutions were renewed after 24 h.
After 48 h of treatment in total, the effect of the test compounds on CYP3A4 mRNA expression was assessed using the QuantiGene Plex Gene Expression Assay. Hepatocytes were lysed and total RNA was extracted using the QuantiGene Sample Processing Kit according to the instructions of the manufacturer.
mRNA quantification was conducted using a customized QuantiGene Plex Panel to analyse CYP3A4 and the housekeeper genes RPL32, EIF4E2 and GUSB according to the instructions of the manufacturer and measured on a Luminex™ instrument. Signal was reported as median fluorescence intensity (MFI), which is proportional to the number of target RNA molecules present in the sample.
For calculation of CYP3A4 mRNA induction, the signal for CYP3A4 was normalized against the geometric mean of the signal obtained for the housekeeper genes for hepatocytes exposed to test compounds in relation to solvent-treated samples according to the following equation: […]

| Compound | n-fold induction of CYP3A4 at 10 μM [n-fold] |
| --- | --- |
| Cn1cnnc1C1(F)CCN(c2c(C#N)cc(C(F)(F)F)nc2-c2cnc3nn(C)c(C(F)(F)F)c3c2)CC1 [Example 10] | 5.2 |

same assay, conditions: Table 10, prior art compounds, 48 h

| Compound | n-fold induction of CYP3A4 at 10 μM [n-fold] |
| --- | --- |
| Cn1cnnc1C1CCN(c2c(C#N)cccc2-c2cnc3cn[nH]c3c2)CC1 [Compound 125, reference compound] | 2.1 |
| Cn1cnnc1C1CCN(c2c(C#N)cccc2-c2cncc3c2cnn3C)CC1 [Compound 4, reference compound] | 0.8 |

tested on: murine hepatocytes; test: Assay E: stability in murine hepatocytes; type: in vitro ADME, mouse; conditions: Table 12, compounds of the invention, 1 μM, 5% species serum
Procedure: The metabolic degradation of the test compound is assayed in a murine hepatocyte suspension.
Murine hepatocytes (typically cryopreserved) are incubated in an appropriate buffer system (e.g. Dulbecco's modified eagle medium plus 3.5 μg glucagon/500 mL, 2.5 mg insulin/500 mL and 3.75 mg/500 mL hydrocortison) containing 5% species serum.
Following a (typically) 30 min preincubation in an incubator (37° C., 10% CO2) 5 μl of test compound solution (80 μM; from 2 mM in DMSO stock solution diluted 1:25 with medium) are added into 395 μl hepatocyte suspension (cell density in the range 0.25-5 Mio cells/mL, typically 1 Mio cells/mL; final concentration of test compound 1 μM, final DMSO concentration 0.05%).
The cells are incubated for six hours (incubator, orbital shaker) and samples (25 μl) are taken at 0, 0.5, 1, 2, 4 and 6 hours. Samples are transferred into acetonitrile and pelleted by centrifugation (5 min). The supernatant is transferred to a new 96-deepwell plate, evaporated under nitrogen and resuspended.
Decline of parent compound is analyzed by HPLC-MS/MS
CLint is calculated as follows CL_[…]=Dose/AUC=(C0/CD)/(AUD+clast/k)×1000/60. C0: initial concentration in the incubation [μM], CD: cell density of vital cells [10e6 cells/mL], AUD: area under the data [μM×h], clast: concentration of last data point [μM], k: slope of the regression line for parent decline [h−1].
The calculated in vitro hepatic intrinsic clearance can be scaled up to the intrinsic in vivo hepatic Clearance and used to predict hepatic in vivo blood clearance (CL) by the use of a liver model (well stirred model).
[formula] [formula] [formula] • Hepatocellularity, mouse: 120×10e6 cells/g liver • Liver factor, mouse: 55 g/kg bodyweight • Blood flow, mouse: 90 ml/(min×kg)

| Compound | Mouse Hepatocyte Stability QH [%] |
| --- | --- |
| Cn1cnnc1C1(F)CCN(c2c(C#N)cc(C(F)(F)F)nc2-c2cnc3nn(C)c(C(F)(F)F)c3c2)CC1 [Example 10] | 53 |

same assay, conditions: Table 13, prior art compounds, 1 μM, 5% species serum

| Compound | Mouse Hepatocyte Stability QH [%] |
| --- | --- |
| Cn1cnnc1C1CCN(c2c(C#N)cccc2-c2cnc3cn[nH]c3c2)CC1 [Compound 125, reference compound] | 45 |
| Cn1cnnc1C1CCN(c2c(C#N)cccc2-c2cncc3c2cnn3C)CC1 [Compound 4, reference compound] | 92 |

tested on: not listed separately; test: Assay C: permeability in CACO-2 cells; type: in vitro ADME; conditions: human, Caco-2, pH 7.2
Procedure: Caco-2 cells (1-2×10^5 cells/1 cm^2 area) are seeded on filter inserts (Costar transwell polycarbonate or PET filters, 0.4 μm pore size) and cultured (DMEM) for 10 to 25 days. Compounds are dissolved in appropriate solvent (like DMSO, 1-20 mM stock solutions). […] The transport solution (TL) is applied to the apical or basolateral donor side for measuring A-B or B-A permeability (3 filter replicates), respectively. Samples are collected at the start and end of experiment from the donor and at various time intervals for up to 2 hours also from the receiver side for concentration measurement by HPLC-MS/MS or scintillation counting. Sampled receiver volumes are replaced with fresh receiver solution.
Efflux ratio (ER)=permeability B−A/permeability A−B

| Compound | Papp A→B [×10⁻⁶ cm/s] |
| --- | --- |
| Cn1cnnc1C1CCN(c2c(C#N)cccc2-c2cnc3cn[nH]c3c2)CC1 [Compound 125, reference compound] | 0.6 |
| Cn1cnnc1C1CCN(c2c(C#N)cccc2-c2cncc3c2cnn3C)CC1 [Compound 4, reference compound] | 0.3 |

same assay, conditions: human, Caco-2, pH 7.2; read-out: Efflux Ratio

| Compound | efflux ratio |
| --- | --- |
| Cn1cnnc1C1CCN(c2c(C#N)cccc2-c2cnc3cn[nH]c3c2)CC1 [Compound 125, reference compound] | 30.4 |
| Cn1cnnc1C1CCN(c2c(C#N)cccc2-c2cncc3c2cnn3C)CC1 [Compound 4, reference compound] | 28.1 |

same assay, conditions: human, pH 7.2; Table 7, compounds of the invention, CACO-2 cells

| Compound | Papp A→B [×10⁻⁶ cm/s] |
| --- | --- |
| Cn1cnnc1C1(F)CCN(c2c(C#N)cc(C(F)(F)F)nc2-c2cnc3nn(C)c(C(F)(F)F)c3c2)CC1 [Example 10] | 11 |

same assay, conditions: human, pH 7.2; Table 7, compounds of the invention, CACO-2 cells, permeability B-A/permeability A-B; read-out: Efflux Ratio

| Compound | efflux ratio |
| --- | --- |
| Cn1cnnc1C1(F)CCN(c2c(C#N)cc(C(F)(F)F)nc2-c2cnc3nn(C)c(C(F)(F)F)c3c2)CC1 [Example 10] | 6.6 |

molecular target: T2, QPCT (Homo sapiens, UniProt Q16769); test: Assay A: biochemical QPCT activity assay (MALDI-TOF MS, CD47 peptide substrate); conditions: Table 2, compounds of the invention, read-out: Inhibition of QPCT: IC50
T2 construct: purchased Origine (OriGene) TP700028
T2 sequence (Q16769 29-361): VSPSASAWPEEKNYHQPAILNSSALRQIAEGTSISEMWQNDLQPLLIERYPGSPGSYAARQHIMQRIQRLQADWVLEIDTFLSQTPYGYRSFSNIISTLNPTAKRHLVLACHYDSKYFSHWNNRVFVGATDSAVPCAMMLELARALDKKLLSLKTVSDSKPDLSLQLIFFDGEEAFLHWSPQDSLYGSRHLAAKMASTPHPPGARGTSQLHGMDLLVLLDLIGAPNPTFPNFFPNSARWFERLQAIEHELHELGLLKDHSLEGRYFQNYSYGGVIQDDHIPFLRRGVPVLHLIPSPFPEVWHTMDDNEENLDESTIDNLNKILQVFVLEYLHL
Procedure: as §1

| Compound | IC50 [nM] |
| --- | --- |
| Cn1cnnc1C1(F)CCN(c2c(C#N)cc(C(F)(F)F)nc2-c2cnc3nn(C)c(C(F)(F)F)c3c2)CC1 [Example 10] | 13 |

same assay, conditions: Table 3, prior art compounds, read-out: Inhibition of QPCT: IC50

| Compound | IC50 [nM] |
| --- | --- |
| Cn1cnnc1C1CCN(c2c(C#N)cccc2-c2cnc3cn[nH]c3c2)CC1 [Compound 125, reference compound] | 446 |
| Cn1cnnc1C1CCN(c2c(C#N)cccc2-c2cncc3c2cnn3C)CC1 [Compound 4, reference compound] | 313 |

tested on: SIRPα signalling induced by Raji cells; test: Assay B: SIRPα signalling assay using Raji cells; type: cell-based; conditions: Homo sapiens, Table 4, compounds of the invention, read-out: Inhibition of SIRPα signalling induced by Raji cells: IC50
Procedure: Bioassay reagent 1 of the PathHunter Bioassay detection kit (DiscoverX 93-0001) was added to each well of the plate using a multichannel pipette followed by a 15 min incubation at room temperature. Afterwards bioassay reagent 2 was added followed by 60 min incubation at room temperature (incubation in the dark).
(§2) The analysis of the data was performed using the luminescence signal generated by beta-galactosidase in the PathHunter reporter cell line. The luminescence measurement was done using a Pherastar Multi-Mode Reader.

| Compound | IC50 [nM] |
| --- | --- |
| Cn1cnnc1C1(F)CCN(c2c(C#N)cc(C(F)(F)F)nc2-c2cnc3nn(C)c(C(F)(F)F)c3c2)CC1 [Example 10] | 160 |

same assay, conditions: Homo sapiens, Table 5, prior art compounds, read-out: Inhibition of SIRPα signalling induced by Raji cells: IC50

| Compound | IC50 [nM] |
| --- | --- |
| Cn1cnnc1C1CCN(c2c(C#N)cccc2-c2cnc3cn[nH]c3c2)CC1 [Compound 125, reference compound] | 4490 |
| Cn1cnnc1C1CCN(c2c(C#N)cccc2-c2cncc3c2cnn3C)CC1 [Compound 4, reference compound] | > 10000 |

tested on: SIRPα signalling induced by A549 cells; test: Assay B: SIRPα signalling assay using A549 cells; type: cell-based; conditions: Homo sapiens, Table 4, compounds of the invention, read-out: Inhibition of SIRPα signalling induced by A549 cells: IC50
Procedure: Two cell types are independently used: the Raji cell line (lymphoblast-like human cell line derived from B lymphocytes from a Burkitt's lymphoma patient in 1963) and A549 cells (adenocarcinoma human alveolar basal epithelial cells).
Test compounds were dissolved in 100% DMSO and serially diluted into a white 384-well microtiter cell culture plate (PerkinElmer #60076780 in case of Raji assay; PDL-coated plates Greiner #781945 in case of A549 assay). 5000 Raji cells (ATCC #CC86) or 5000 A549 cells (ATCC #CCL-185) in Assay Complete Cell Plating reagent 30 (DiscoverX 93-0563R30B) were added per well. The assay plate was incubated for 48 h at 37° C., 95% humidity and 5% CO2. 15000 reporter cells (Jurkat PathHunter SIRPαV1, DiscoverX #93-1135C19) were added to each well, and the plate was incubated for 5 h at 37° C., 95% humidity and 5% CO2. Bioassay reagent 1 of the PathHunter Bioassay detection kit (DiscoverX 93-0001) was added to each well of the plate using a multichannel pipette followed by a 15 min incubation at room temperature. Afterwards bioassay reagent 2 was added followed by 60 min incubation at room temperature (incubation in the dark).
as §2, with “Reader. Dose-response curves & IC50 data were calculated with 4-parameter sigmoidal dose response formula.” for “Reader.”

| Compound | IC50 [nM] |
| --- | --- |
| Cn1cnnc1C1(F)CCN(c2c(C#N)cc(C(F)(F)F)nc2-c2cnc3nn(C)c(C(F)(F)F)c3c2)CC1 [Example 10] | 49 |

same assay, conditions: Homo sapiens, Table 5, prior art compounds, read-out: Inhibition of SIRPα signalling induced by A549 cells: IC50

| Compound | IC50 [nM] |
| --- | --- |
| Cn1cnnc1C1CCN(c2c(C#N)cccc2-c2cnc3cn[nH]c3c2)CC1 [Compound 125, reference compound] | > 10000 |
| Cn1cnnc1C1CCN(c2c(C#N)cccc2-c2cncc3c2cnn3C)CC1 [Compound 4, reference compound] | 4500 |
